Experimental data reported in publication PMC5056396, “Hexokinase I N-terminal based peptide prevents the VDAC1-SOD1 G93A interaction and re-establishes ALS cell viability” (Scientific Reports, 2016).

B1: HK1: recombinant human HK1 purchased by Sigma; in cells expressed from plasmid (protein)
chain: MIAAQLLAYYFTELKDDQVKKIDKYLYAMRLSDETLIDIMTRFRKEMKNGLSRDFNPTATVKMLPTFVRSIPDGSEKGDFIALDLGGSSFRILRVQVNHEKNQNVHMESEVYDTPENIVHGSGSQLFDHVAECLGDFMEKRKIKDKKLPVGFTFSFPCQQSKIDEAILITWTKRFKASGVEGADVVKLLNKAIKKRGDYDANIVAVVNDTVGTMMTCGYDDQHCEVGLIIGTGTNACYMEELRHIDLVEGDEGRMCINTEWGAFGDDGSLEDIRTEFDREIDRGSLNPGKQLFEKMVSGMYLGELVRLILVKMAKEGLLFEGRITPELLTRGKFNTSDVSAIEKNKEGLHNAKEILTRLGVEPSDDDCVSVQHVCTIVSFRSANLVAATLGAILNRLRDNKGTPRLRTTVGVDGSLYKTHPQYSRRFHKTLRRLVPDSDVRFLLSESGSGKGAAMVTAVAYRLAEQHRQIEETLAHFHLTKDMLLEVKKRMRAEMELGLRKQTHNNAVVKMLPSFVRRTPDGTENGDFLALDLGGTNFRVLLVKIRSGKKRTVEMHNKIYAIPIEIMQGTGEELFDHIVSCISDFLDYMGIKGPRMPLGFTFSFPCQQTSLDAGILITWTKGFKATDCVGHDVVTLLRDAIKRREEFDLDVVAVVNDTVGTMMTCAYEEPTCEVGLIVGTGSNACYMEEMKNVEMVEGDQGQMCINMEWGAFGDNGCLDDIRTHYDRLVDEYSLNAGKQRYEKMISGMYLGEIVRNILIDFTKKGFLFRGQISETLKTRGIFETKFLSQIESDRLALLQVRAILQQLGLNSTCDDSILVKTVCGVVSRRAAQLCGAGMAAVVDKIRENRGLDRLNVTVGVDGTLYKLHPHFSRIMHQTVKELSPKCNVSFLLSEDGSGKGAALITAVGVRLRTEASS

Tests used:
[1] = tested on: human VDAC1 reconstituted into PLB; experiment: VDAC1 channel conductance in planar lipid bilayer (PLB); type: biochemical; conditions: for effect on single channel VDAC1 conductance: 1 M KCl, +25 mV, 0.2 μM SOD1 proteins or 15 μM peptide; for effect on voltage-dependence of VDAC1, triangular voltage ramps: symmetric 1 M KCl, ramps 0 to ±50 mV
Text: Purified VDAC1 was reconstituted into a planar phospholipid bilayer (PLB) and its channel conductance was monitored before and after addition of SOD1 proteins, on cis or trans side of the membrane. […] Moreover, the effect of SOD1 proteins on the voltage-dependence of VDAC1 was monitored by triangular voltage ramps from 0 to ±50 mV. […] The current linearly follows the voltage applied up to about ±25 mV, where VDAC1 decreases its channel conductance through step-like transitions, remaining in low-conducting states.
Under standard experimental condition (1 M KCl and an applied potential of +25 mV) the VDAC1 channel was mainly in low-conducting closed states. […] The effect of NHK1 on the channel conductance is even more evident by plotting the amplitude values obtained in the current traces as a function of the number of events. While for VDAC1 alone the amplitude values appear as a main peak corresponding to the closed states (Fig. 4B), the presence of NHK1 caused a different distribution of events: an additional, different peak corresponding to the open state was visible, together with the closed states peak (Fig. 4C). […] The effect of NHK1 on the voltage-dependence of VDAC1 was monitored by triangular voltage ramps. […] In this experiment, indeed, VDAC1 completely loose, very precociously (already at ±15 mV applied), its ability to linearly respond to the applied voltage: a continuous switch from open to closed states was observed, especially at positive potentials. […] Upon NHK1 incubation, VDAC1 current transitions at positive voltages are very noisy and pass through different sub-conductance states (Fig. 4F).
Purified VDAC1 was reconstituted into a Planar Lipid Bilayer (PLB) apparatus (Warner Instruments, Hamden, CT, USA), previously described. Bilayers were prepared using asolectin (Sigma) dissolved in decane (Sigma) containing 1% chloroform (Sigma) across a 200 μm hole in a derlin cuvette (Warner Instruments). Experiments were performed in 1 M KCl, 10 mM Hepes, pH 7.0[40][46]. Control experiments using empty membrane and/or detergents were performed to avoid activity in any of the above solutions. Data were acquired using a Bilayer Clamp amplifier (Warner Instruments) at 100 μs/point, filtered at 200 Hz and analyzed offline using Clampfit 10.4 program set (Axon Instruments, Union City, CA, USA). Single channel analysis of VDAC1 was performed in presence or not of 0.2 μM of SOD1 WT or G93A, 15 μM NHK1 or ScNHK1 peptide.

recombinant human VDAC1 [2] = experiment: Microscale Thermophoresis (MST) analysis of VDAC1-SOD1 interaction; type: binding; conditions: 100 nM labeled VDAC1, SOD1 1.22 nM to 20 μM
Protocol: (§1) Intact isolated mitochondria from the motor neuron-like NSC34 cells were incubated with SOD1 WT or G93A, and mitochondrial membranes were precipitated by centrifugation. […] The affinity of SOD1 proteins for VDAC1 was then studied by using an in vitro binding assay. Purified and refolded VDAC1 was immobilized on Ni-NTA magnetic beads and incubated with SOD1 proteins. Then, VDAC1-binding complexes were isolated by the application of a magnetic field. […] The VDAC1-SOD1 interaction was quantitatively assayed by Microscale Thermophoresis (MST) analysis. MST measures any variation in the thermal migration of a fluorescently labeled binding partner; changes of fluorescence in a heated spot of the protein solution is a function of increasing interacting protein concentration, and can be exploited to calculate the binding affinity coefficient (Kd). The fluorescent-labeled VDAC1 was incubated with increasing concentrations of SOD1 proteins and the changes in fluorescence monitored. […] Depletion curve was used to calculate the Kd, which was estimated 4,81 μM.
Microscale Thermophoresis (MST) analysis was performed using the NanoTemper Monolith NT.115 apparatus (NanoTemper Technologies, Munich, Germany) as described. VDAC1 was fluorescently-labeled using the NanoTemper protein-labeling kit Green/Blue. […]

[3] = tested on: intact mitochondria purified from NSC34 cells; experiment: Mitochondrial binding assay of SOD1 proteins (western blot); set-up: species or system mouse; conditions: 2 μg SOD1, 1 h RT, n = 3
Protocol: Intact isolated mitochondria from the motor neuron-like NSC34 cells were incubated with SOD1 WT or G93A, and mitochondrial membranes were precipitated by centrifugation. […] The affinity of SOD1 proteins for VDAC1 was then studied by using an in vitro binding assay. Purified and refolded VDAC1 was immobilized on Ni-NTA magnetic beads and incubated with SOD1 proteins. Then, VDAC1-binding complexes were isolated by the application of a magnetic field. […] The VDAC1-SOD1 interaction was quantitatively assayed by Microscale Thermophoresis (MST) analysis. MST measures any variation in the thermal migration of a fluorescently labeled binding partner; changes of fluorescence in a heated spot of the protein solution is a function of increasing interacting protein concentration, and can be exploited to calculate the binding affinity coefficient (Kd). The fluorescent-labeled VDAC1 was incubated with increasing concentrations of SOD1 proteins and the changes in fluorescence monitored. […]
Intact mitochondria were purified from NSC34 cells by Mitochondrial isolation kit (Miltenyi Biotech), according with manufacturer’s instructions. Isolated, intact mitochondria, in the storage buffer provided, were quantified by Lowry method. […] Proteins in mitochondrial or supernatant fraction were detected by western blot and quantified as explained in Supplementary Information. […]

recombinant human VDAC1 [4] = experiment: In vitro binding assay of SOD1 proteins to VDAC1 immobilized on Ni-NTA magnetic beads (western blot); conditions: 6.25 μM SOD1, 1 h RT, n = 3
Protocol: as §1
Recombinant VDAC1 was immobilized onto Ni-NTA Magnetic Agarose Beads (Qiagen) by exploiting its 6xHis-tag, according with manufacture’s protocol. […] Any protein in VDAC1-bound and -unbound fractions was evaluated by western blot. […]

[5] = tested on: VDAC1-SOD1 G93A interaction; experiment: In vitro VDAC1-SOD1 G93A binding assay after pre-incubation with HK1 or peptide (western blot, densitometry); set-up: species or system human; conditions: 200 μM HK1 pre-incubated 1 h, 6.25 μM SOD1 G93A; with respect to control; n = 3
Text: It is well known that HKs bind to VDAC1 in physiological conditions. We hypothesized that the available area for interaction with soluble proteins is a limited, exposed portion of the transmembrane pore VDAC1. […] For this reason, we repeated the VDAC1-SOD1 G93A binding assay, adding increasing concentrations of HK1. […] The reduction corresponds to the increase of HK1 in VDAC1-bound fraction, and it is proportional to the HK1 concentrations added in the assay (Fig. 3A).
In order to evaluate the NHK1 ability to interfere with VDAC1-SOD1 G93A interaction, a binding assay was performed. Increasing concentrations of NHK1 were added to immobilized-VDAC1, before SOD1 G93A addition. […] In fact, a 20-fold smaller concentration of peptide was used to obtain a result similar to that obtained by using the whole HK1 in the previous experiment (see Fig. 3A).
Recombinant VDAC1 was immobilized onto Ni-NTA Magnetic Agarose Beads (Qiagen) by exploiting its 6xHis-tag, according with manufacture’s protocol. For each experiment, a large excess of VDAC1 (30 μM) were incubated with 50 μL of beads suspension in Interaction Buffer (IB) (300 mM NaCl, 50 mM NaH2PO4, 20 mM imidazole, pH 8.0) to saturate all sites. Beads were collected using the magnet-based system DynaMag-2 (Life Technologies) and washed twice in Wash Buffer (300 mM NaCl, 50 mM NaH2PO4, 20 mM imidazole, 0.05% Tween-20, pH 6.3) to remove any excess of VDAC1. Beads-immobilized VDAC1 were incubated with 6.25 μM SOD1 WT or G93A, for 1 h at RT, under constant shaking, in 100 μL of IB. The assay was also performed by pre-incubating immobilized-VDAC1 for an extra 1 h with increasing concentration of purified human HK1 (0, 100, 200 μM) or NHK1 peptide (0, 5, 10, 25 μM), before SOD1 G93A addition. Beads were recovered using Dyna-Mag2 system and VDAC1-complexes were eluted from beads using 50 μL of Elution Buffer (300 mM NaCl, 50 mM NaH2PO4, 300 mM imidazole, pH 3.5). Any protein in VDAC1-bound and -unbound fractions was evaluated by western blot. Three independent experiments were performed for each condition tested.

NSC34-SOD1G93A cells = experiment: Mitochondrial membrane potential (ΔΨm) by flow cytometry; type: cell-based, mouse; conditions: NSC34-SOD1G93A expressing HK1; RH123; n = 3
Protocol: To evaluate the NHK1 influence on mitochondrial functionality, mitochondrial membrane potential variation (ΔΨm) was assayed in the presence of NHK1 peptide or HK1. ΔΨm is related to the ATP production by oxidative phosphorylation; therefore, it is considered an indication of good mitochondrial and cellular health. Using mitochondria-targeted fluorescent probes, we estimated in flow cytometry the rate of mitochondrial depolarization. NSC34-SOD1G93A cells shown a high level of depolarized mitochondria compared to NSC34-SOD1WT. […] Similarly to NHK1 peptide, the expression of the whole HK1 reduced the depolarized mitochondria of about 15% (Fig. 7C).
ΔΨm was measured using tetramethyl-rhodamine methyl ester (TMRM) or Rhodamine 123 (RH123) (Molecular Probes) according to the excitation/emission wavelength of the transfection reporter or of the transfected fluorescent protein used. Both probes accumulates in active mitochondria due to their positive charge, whereby the reduction of ΔΨm leads to the release of fluorescent probes. Transfected NSC34-SOD1WT and NSC34-SOD1G93A cells were washed with PBS and incubated for 30 min at 37 °C with Krebs Ringer Buffered Saline supplemented with either 200 nM TMRM or 0.1 μg/mL RH123 and 20 μM Verapamil (as a multi drug-resistant pump inhibitor) (Sigma). Cells were then harvested and immediately analyzed by flow cytometry. Cells were excited by an air-cooled argon 488 nm laser, reading the GFP fluorescence of HK1-GFP or RH123 fluorescence in FL1 log mode; TMRM and mtDsRED used as transfection reporter of NHK1 peptide were read on FL3 log mode. Only viable cells detected by reading the scattering indicated as FSC and SSC, were considered for our analysis. The threshold physiological value of ΔΨm was estimated by using cells exposed to 1 μM of the uncoupling agent FCCP as a negative control. Data reported are representative for three sets of independent experiments, each performed at least in triplicate and based on 20.000 events for each group. Data were statistical analyzed by chi-square test. A p < 0,001 was taken as significant.

Molecule | effect on single channel VDAC1 conductance [1] | effect on voltage-dependence of VDAC1, triangular voltage ramps [1] | change of fluorescence of labeled VDAC1 with increasing SOD1 concentration (recombinant human VDAC1 [2]) | distribution between mitochondrial pellet and supernatant [3] | distribution between VDAC1-bound and -unbound fraction (recombinant human VDAC1 [4]) | decrease of SOD1 G93A bound to immobilized VDAC1 [5] | reduction of depolarized mitochondria (NSC34-SOD1G93A cells)
SOD1 G93A: Strep-tagged recombinant human ALS-linked SOD1 G93A mutant expressed in E. coli | promoted VDAC1 channel instability | perturbation of voltage-dependence | produced fluorescence decrease | co-precipitated in the mitochondrial pellet | distributed between VDAC1-bound and -unbound fraction | – | –
SOD1 WT: Strep-tagged recombinant human SOD1 wild type expressed in E. coli | did not modify the VDAC1 closed state | no modification in the usual VDAC1 pattern | no fluorescence change | found exclusively in the supernatant | almost exclusively in the unbound fraction | – | –
B1 | – | – | – | – | – | about 40% | about 15%
